The structures appear in SMILES notation. Read-outs that look alike come from different tables or passages of the source.

By inhibition is commonly meant the relative decrease from the control value, in per cent. Broadly, the IC50 is the midpoint of a concentration-inhibition curve.

The target in data set [1] is T1, OCT2 (Homo sapiens, UniProt O15244).
T1 sequence (O15244 1-555): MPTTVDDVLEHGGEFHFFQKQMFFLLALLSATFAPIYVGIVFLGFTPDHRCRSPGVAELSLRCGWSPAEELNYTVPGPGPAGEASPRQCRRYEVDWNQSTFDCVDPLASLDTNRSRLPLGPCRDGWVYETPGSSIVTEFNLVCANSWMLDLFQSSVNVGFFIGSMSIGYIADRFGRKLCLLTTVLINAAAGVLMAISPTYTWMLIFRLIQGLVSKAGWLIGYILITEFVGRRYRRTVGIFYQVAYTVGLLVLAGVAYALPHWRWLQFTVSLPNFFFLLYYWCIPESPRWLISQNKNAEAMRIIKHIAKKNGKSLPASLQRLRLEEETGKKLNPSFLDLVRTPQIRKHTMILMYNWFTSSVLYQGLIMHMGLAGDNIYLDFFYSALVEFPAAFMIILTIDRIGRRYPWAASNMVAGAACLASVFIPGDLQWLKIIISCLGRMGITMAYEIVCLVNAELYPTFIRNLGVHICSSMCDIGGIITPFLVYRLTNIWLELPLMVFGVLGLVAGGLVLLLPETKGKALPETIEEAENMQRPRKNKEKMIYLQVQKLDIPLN
Nature of the data set: Inhibition of model substrate uptake in OCT2-overexpressing HEK293 cells. The settings on record: for N-Ethyllidocaine inhibition [%] / inhibition at 5 min, 20 μM / (S,S)-Ethambutol inhibition [%]: OCT2, 20 μM inhibitor. On the procedure:
(§1) All experiments were carried out in transporter-overexpressing HEK293 cells. OCT1-, OCT2-, NET-, DAT-, and SERT-overexpressing cells as well as the empty-vector transfected control cell line were generated as described earlier,[26]−[28] whereas the OCT3-overexpressing HEK293 cells were generous gift of from Drs. Koepsell and Gorbulev (University of Würzburg, Germany). All cells were cultivated in Dulbecco’s modified Eagle’s medium (DMEM) supplemented with 10% (v/v) FCS, penicillin (100 U/mL), and streptomycin (100 μg/mL) and kept in culture for no longer than 30 passages.
(§2) As for the transport experiments, 300,000 HEK293 cells were plated in poly-D-lysine-coated 24-well plates 2 days ahead of the experiment. On every plate, two wells of empty vector (EV)-transfected cells were used as a control to account for the passive influx of the model substrate, and two wells of transporter-overexpressing cells were used to determine the noninhibited uptake of the model substrate. Cells were initially washed once with 37 °C HBSS+ and then incubated with 2 μM model substrate (0.2 μM for MPP^+ uptake by MATs) with and without 20 μM inhibitor for 5 min. For concentration-dependent inhibition experiments, the cells were incubated with increasing inhibitor concentrations. The incubation was terminated by aspiration of the buffer before cells were washed twice with ice-cold HBSS+ and lysed in 80% acetonitrile. Cell lysates were transferred into a black 96-well plate for the fluorescence measurement of ASP^+ or used for sample preparation for LC–MS/MS analysis. […] Fluorescence quantification was performed in technical duplicates.
(§3) Transporter-mediated net uptake was calculated as the difference between uptake in transporter-overexpressing cells and that in the empty-vector-transfected control. […] Vmax is the maximum transport velocity, while Km is defined as the substance concentration that is required to reach half of vmax. The ratio of vmax over Km is termed intrinsic clearance Clint. For inhibition experiments, the transport activity was calculated by using the following equation [drawing 1]
(§4) SubstrateEV refers to the passive uptake of model substrates into the control cells and substratenoninhibited is the uptake in transporter-overexpressing cells without the presence of any inhibitor. The percent inhibition values are then calculated as described in the following [drawing 2]
(§5) For concentration inhibition experiments, the transporter activity was plotted against the log10 of inhibitor concentrations, and the data were fitted by the following equation to determine IC50 values [drawing 3]
(§6) Y refers to the transporter activity, whereas Ymax is the maximum and Ymin is the minimal transporter activity. X is the log10 of inhibitor concentrations, IC50 is the half-maximal inhibitory concentration, and hill slope is the slope factor.

Data set [2] deals with T2, OCT3 (Homo sapiens, UniProt O75751).
T2 construct: expressed in transfected cells; host or cells: HEK293
T2 sequence (O75751 1-556): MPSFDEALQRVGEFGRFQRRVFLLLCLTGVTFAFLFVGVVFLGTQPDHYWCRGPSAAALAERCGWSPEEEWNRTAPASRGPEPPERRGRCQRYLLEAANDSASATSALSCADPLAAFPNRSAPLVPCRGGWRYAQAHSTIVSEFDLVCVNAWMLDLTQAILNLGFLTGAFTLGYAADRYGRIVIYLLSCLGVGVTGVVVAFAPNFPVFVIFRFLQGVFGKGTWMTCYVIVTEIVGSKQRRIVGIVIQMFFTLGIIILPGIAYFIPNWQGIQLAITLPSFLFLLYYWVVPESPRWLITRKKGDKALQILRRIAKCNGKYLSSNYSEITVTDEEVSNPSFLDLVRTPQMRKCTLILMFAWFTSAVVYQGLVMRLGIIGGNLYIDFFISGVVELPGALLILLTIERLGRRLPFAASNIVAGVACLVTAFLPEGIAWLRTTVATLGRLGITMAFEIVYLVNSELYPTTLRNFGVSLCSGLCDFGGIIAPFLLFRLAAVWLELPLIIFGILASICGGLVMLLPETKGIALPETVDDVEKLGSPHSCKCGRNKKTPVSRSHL
Briefly: Inhibition of model substrate uptake in OCT3-overexpressing HEK293 cells. The data set is classed as cell-based. On the procedure:
as §1, §2, §3, §4, §5, §6

Data set [3] concerns the target T3, OCT1 (Homo sapiens, UniProt O15245).
T3 sequence (O15245 1-554): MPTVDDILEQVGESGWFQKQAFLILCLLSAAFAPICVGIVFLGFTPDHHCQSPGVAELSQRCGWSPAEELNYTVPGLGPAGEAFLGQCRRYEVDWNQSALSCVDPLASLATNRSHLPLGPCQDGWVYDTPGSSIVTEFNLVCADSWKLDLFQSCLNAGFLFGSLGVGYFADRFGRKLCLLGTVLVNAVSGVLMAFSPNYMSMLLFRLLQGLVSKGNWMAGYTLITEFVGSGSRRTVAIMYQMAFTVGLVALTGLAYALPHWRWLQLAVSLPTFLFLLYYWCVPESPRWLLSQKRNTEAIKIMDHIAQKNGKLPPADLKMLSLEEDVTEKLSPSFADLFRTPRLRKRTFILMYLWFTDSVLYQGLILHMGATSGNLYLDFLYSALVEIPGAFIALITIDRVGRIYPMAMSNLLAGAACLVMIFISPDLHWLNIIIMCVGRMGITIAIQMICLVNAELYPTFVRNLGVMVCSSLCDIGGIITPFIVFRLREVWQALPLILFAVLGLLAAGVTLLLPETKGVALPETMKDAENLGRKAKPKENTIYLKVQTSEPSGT
Nature of the data set: Inhibition of model substrate uptake in OCT1-overexpressing HEK293 cells. The data set is classed as cell-based. The settings on record: 5 min; for inhibition at 5 min, 20 μM: human, OCT1-overexpressing HEK293 cells. Set-up: expressed in transfected cells; host or cells: HEK293. On the procedure:
Koepsell and Gorbulev (University of Würzburg, Germany).
Fluorescence quantification was performed in technical duplicates.

Setting [4] is: human, OCT2-overexpressing HEK293 cells, pH 7.4, probe (S,S)-ethambutol (2 μM), (S,S)-Ethambutol inhibition [%], 2 μM (S,S)-ethambutol, 5 min.
Setting [5] is: human, OCT2-overexpressing HEK293 cells, pH 7.4, probe ASP+ (2 μM), ASP+ inhibition [%], 2 μM ASP+, 5 min.
The mark [6] stands for this setting: HEK293, 5 min, read-out: (S)-Zolmitriptan inhibition [%], OCT3, 20 μM inhibitor, 2 μM (S)-zolmitriptan, 5 min.
The mark [7] stands for this setting: HEK293, 5 min, read-out: (S,S)-Ethambutol inhibition [%], OCT3, 20 μM inhibitor, 2 μM (S,S)-ethambutol, 5 min.
The mark [8] stands for this setting: HEK293, OCT3, 20 μM inhibitor, 2 μM ASP+, 5 min, read-out: ASP+ inhibition [%].
Where [9] appears, read: pH 7.4, probe (S,S)-ethambutol (2 μM), (S,S)-Ethambutol inhibition [%], OCT1, 20 μM inhibitor, 2 μM (S,S)-ethambutol.
Where [10] appears, read: pH 7.4, probe ASP+ (2 μM), OCT1, 20 μM inhibitor, 2 μM ASP+, mean of three experiments, read-out: ASP+ inhibition [%].
Where [11] appears, read: pH 7.4, probe sumatriptan (2 μM), OCT1, 20 μM inhibitor, 2 μM sumatriptan, read-out: Sumatriptan inhibition [%].
The mark [12] stands for this setting: human, OCT2-overexpressing HEK293 cells, pH 7.4, probe N-ethyllidocaine (2 μM), N-Ethyllidocaine inhibition [%], 2 μM N-ethyllidocaine, 5 min.
The mark [13] stands for this setting: OCT3, 20 μM inhibitor, 2 μM (S)-zolmitriptan, 5 min.
Where [14] appears, read: HEK293, 5 min, read-out: (S)-Zolmitriptan inhibition [%].
[15] abbreviates: HEK293, 5 min, read-out: (S,S)-Ethambutol inhibition [%].

For the compound `CN(C)CCO[C@](C)(c1ccccc1)c1ccccn1` [(R)-Doxylamine], in data set [1] (2 μM N-ethyllidocaine, 5 min), the “N-Ethyllidocaine inhibition [%]” value is listed as -13.8%. The inhibition at 5 min, 20 μM in data set [1] (setting [4]) was found to be 26.2%; in data set [1] (setting [5]) it was 73.2%; in data set [3] (setting [9]), 96%; in data set [3] (setting [10]) it was 63.6%; in data set [3] (setting [11]), 90.8%. Further, the inhibition at 20 µM in data set [2] (setting [6]) is 17.7%; in data set [2] (setting [7]), 23.4%; in data set [2] (setting [8]), 12.2%. Moreover, the 50% inhibitory concentration (IC50) in data set [3] (OCT1, Table S5, 2 μM ASP+ or ethambutol as model substrate, read-out: IC50) came to 22.3 µM.
`OC[C@H](O)CN1CCN(c2ccccc2)CC1` [(R)-Dropropizine]: the concentration for half-maximal inhibition (IC50) in data set [1] (IC50, OCT2, Table S5, 2 μM ASP+ as model substrate, 5 min) came out at 80.6 µM. Further, the selectivity ratio at 5 min in data set [1] (human, OCT2-overexpressing HEK293 cells, pH 7.4) was 1.4. The inhibition at 5 min, 20 μM was determined as 28% in data set [1] (setting [4]); 40.8% in data set [1] (setting [5]); 8% in data set [1] (setting [12]); 30.1% in data set [3] (setting [9]); 26.2% in data set [3] (setting [10]); 41% in data set [3] (setting [11]). Moreover, the inhibition at 20 µM in data set [2] (setting [7]) turned out to be 5.8%; in data set [2] (setting [8]), 26.4%. Also, the “(S)-Zolmitriptan inhibition [%]” value in data set [2] (setting [13]) is -30.2%.
On to `CNCC[C@@H](Oc1cccc2ccccc12)c1cccs1` [(R)-Duloxetine], for which the IC50 in data set [1] (IC50) is 25.3 µM. Further, the inhibition at 5 min, 20 μM was determined as 33.2% in data set [1] (setting [4]); 53.3% in data set [1] (setting [5]); 50.1% in data set [1] (setting [12]); 85.1% in data set [3] (setting [9]); 41.3% in data set [3] (setting [10]); 86.8% in data set [3] (setting [11]). Also, the inhibition at 20 µM in data set [2] (setting [14]) came to 1.6%; in data set [2] (setting [15]), 16.7%; in data set [2] (HEK293, read-out: ASP+ inhibition [%]), 3.8%.
Turning to `CNCC[C@@H](Oc1ccc(C(F)(F)F)cc1)c1ccccc1` [(R)-Fluoxetine], in data set [1] (2 μM (S,S)-ethambutol, 5 min), the “(S,S)-Ethambutol inhibition [%]” value is reported as 28.2%. Besides, the “N-Ethyllidocaine inhibition [%]” value in data set [1] (2 μM N-ethyllidocaine, 5 min) was 48.9%. The inhibition at 5 min, 20 μM in data set [1] (setting [5]) was 65.6%; in data set [3] (setting [9]), 77.5%; in data set [3] (setting [10]), 45.6%; in data set [3] (setting [11]), 83.4%. Moreover, the “ASP+ inhibition [%]” value in data set [2] was -6.0%. Besides, the inhibition at 20 µM in data set [2] (setting [14]) was found to be 17%; in data set [2] (setting [15]), 9.6%.
`CC(C)Cc1ccc([C@@H](C)C(=O)O)cc1` [(R)-Ibuprofen]: the inhibition at 5 min, 20 μM in data set [1] (setting [4]) is 7%; in data set [1] (setting [5]), 11.5%; in data set [1] (setting [12]) it was 7.9%; in data set [3] (setting [9]) it was 5.6%; in data set [3] (setting [10]) it was 8.3%; in data set [3] (setting [11]), -7.2%. The inhibition at 20 µM is -1.9% in data set [2] (setting [6]), 3.2% in data set [2] (setting [7]) and 12.1% in data set [2] (setting [8]).
On to `Cc1cccc(C)c1OC[C@@H](C)N` [(R)-Mexiletine], for which the inhibition at 5 min, 20 μM in data set [1] (setting [4]) came out at 52.1%; in data set [1] (setting [5]) it was 47%; in data set [1] (setting [12]), 52.2%; in data set [3] (setting [9]), 79.6%; in data set [3] (setting [10]) it was 30.4%; in data set [3] (setting [11]), 85.6%. For the same compound, the inhibition at 20 µM is 25% in data set [2] (setting [6]), 11.6% in data set [2] (setting [7]) and -17.2% in data set [2] (setting [8]).
For the compound `NC[C@H](O)c1ccc(O)c(O)c1` [(R)-Norepinephrine], the “(S,S)-Ethambutol inhibition [%]” value in data set [1] (2 μM (S,S)-ethambutol, 5 min) was -1.8%; in data set [2] (OCT3, 20 μM inhibitor, 2 μM (S,S)-ethambutol, 5 min), 5.7%; in data set [3] (OCT1, 20 μM inhibitor, 2 μM (S,S)-ethambutol) it was -19.9%. Besides, the inhibition at 5 min, 20 μM in data set [1] (setting [5]) came out at 23.1%; in data set [1] (setting [12]) it was 5.4%. Also, in data set [2] (setting [13]), the “(S)-Zolmitriptan inhibition [%]” value is -4.3%. Moreover, the “ASP+ inhibition [%]” value in data set [2] (OCT3, 20 μM inhibitor, 2 μM ASP+, 5 min) is given as 8.4%; in data set [3] (OCT1, 20 μM inhibitor, 2 μM ASP+, mean of three experiments) it was -4.8%. Further, the “Sumatriptan inhibition [%]” value in data set [3] (OCT1, 20 μM inhibitor, 2 μM sumatriptan) is listed as -1.3%.

(Values after PMC10698726 (Molecular Pharmaceutics, 2023).)
